# Measured values reported in ChEMBL document CHEMBL1201862, “PubChem BioAssay data set” (2004).
# Activity calls are given as the source filed them.
# How the values were obtained:
# [1] = target: Intestinal-type alkaline phosphatase (Homo sapiens, UniProt P09923); assay: activation of human intestinal alkaline phosphatase – biochemical, dose response (AID 488873); format: functional
# [2] = target: Intestinal-type alkaline phosphatase (Mus musculus, UniProt P24822); assay: mouse intestinal alkaline phosphatase activators, dose response, biochemical, luminescence, uHTS hits (AID 488783); format: functional
# [3] = target: T1, Alkaline phosphatase, tissue-nonspecific isozyme (Homo sapiens, UniProt P05186); assay: activation of tissue-nonspecific alkaline phosphatase – biochemical, TNAP isozyme, mouse IAP uHTS hits, selectivity assay for mouse IAP activator project, dose response (AID 488880); format: functional
# T1 sequence (P05186 whole entry): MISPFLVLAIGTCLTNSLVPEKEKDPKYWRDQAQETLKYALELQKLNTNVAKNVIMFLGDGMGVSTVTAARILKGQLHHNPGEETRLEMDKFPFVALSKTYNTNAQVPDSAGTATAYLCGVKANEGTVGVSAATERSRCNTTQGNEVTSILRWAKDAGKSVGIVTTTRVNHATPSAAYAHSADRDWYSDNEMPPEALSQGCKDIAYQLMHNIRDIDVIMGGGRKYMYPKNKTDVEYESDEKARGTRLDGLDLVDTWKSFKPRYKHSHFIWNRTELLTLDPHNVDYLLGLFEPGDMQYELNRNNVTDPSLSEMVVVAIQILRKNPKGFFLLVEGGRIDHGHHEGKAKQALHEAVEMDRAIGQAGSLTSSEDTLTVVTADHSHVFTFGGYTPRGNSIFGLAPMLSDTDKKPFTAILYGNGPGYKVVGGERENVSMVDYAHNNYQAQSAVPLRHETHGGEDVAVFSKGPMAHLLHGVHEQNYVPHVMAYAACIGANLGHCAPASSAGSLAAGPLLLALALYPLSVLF
# [4] = target: Peroxisome proliferator-activated receptor gamma (Homo sapiens, UniProt P37231); assay: PPARg transcriptional activation, reporter cells – cell-based, luminescence, assay provider, dose response (AID 504447); format: functional
# [5] = target: T2, Sentrin-specific protease 1 (Homo sapiens, UniProt Q9P0U3); assay: SENP1 catalytic domain blockers, concentration series – biochemical, kinetic FRET, dose response (AID 651697); format: functional; details: read-out: IC50_Mean
# T2 sequence (Q9P0U3 whole entry): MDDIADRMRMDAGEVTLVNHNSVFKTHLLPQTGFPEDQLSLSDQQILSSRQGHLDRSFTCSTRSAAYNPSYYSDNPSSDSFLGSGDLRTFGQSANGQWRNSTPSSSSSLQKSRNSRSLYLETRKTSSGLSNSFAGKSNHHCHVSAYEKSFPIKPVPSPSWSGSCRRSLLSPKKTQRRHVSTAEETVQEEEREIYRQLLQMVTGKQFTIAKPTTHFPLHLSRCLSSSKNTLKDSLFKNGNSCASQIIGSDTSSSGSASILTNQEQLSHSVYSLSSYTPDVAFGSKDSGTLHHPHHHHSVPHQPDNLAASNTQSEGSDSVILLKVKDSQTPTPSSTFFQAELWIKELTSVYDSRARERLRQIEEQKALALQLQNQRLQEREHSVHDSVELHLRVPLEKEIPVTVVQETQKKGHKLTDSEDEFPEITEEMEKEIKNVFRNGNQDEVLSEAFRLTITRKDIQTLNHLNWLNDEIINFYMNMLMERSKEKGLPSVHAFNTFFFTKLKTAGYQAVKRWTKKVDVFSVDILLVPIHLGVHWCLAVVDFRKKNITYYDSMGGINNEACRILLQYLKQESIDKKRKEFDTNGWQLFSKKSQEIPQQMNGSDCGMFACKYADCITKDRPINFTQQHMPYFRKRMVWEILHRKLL
# [6] = target: T2, Sentrin-specific protease 1; assay: Dose response confirmation of small molecule inhibitors of the catalytic domain of the SUMO protease, SENP1 in a FRET assay.; format: functional; details: read-out: IC50_Mean
# [7] = target: Peroxisome proliferator-activated receptor gamma/Nuclear receptor coactivator 1 (Homo sapiens, UniProt P37231); assay: (§1) TR-FRET dose response biochemical High Throughput Screening assay for agonists of the steroid receptor coactivator 1 (SRC-1) recruitment by the peroxisome proliferator-activated receptor gamma (PPAR gamma): non-selective agonists. [Related pubchem assays (depositor defined):AID1300, AID1808, AID504735, AID631]; format: protein assay
# [8] = target: Peroxisome proliferator-activated receptor gamma/Nuclear receptor coactivator 3 (Homo sapiens, UniProt P37231); assay: as §1, with “3 (SRC-3)” for “1 (SRC-1)”, “assays: 1301 (Confirmation screen.), 1048 (Primary screen.)]” for “assays (depositor defined):AID1300, AID1808, AID504735, AID631]”; format: functional
# [9] = target: T3, G-protein coupled receptor 55 (Homo sapiens, UniProt Q9Y2T6); assay: inhibition of LPI-stimulated GPR55 beta-arrestin translocation – imaging, U2OS, beta-arrestin-GFP, LPI agonist, primary screen (AID 2013); format: functional;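 also: antagonist potency measured as reduced agonist-driven arrestin aggregation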
# [10] = Luminescence-based dose response cell-based high throughput screening assay for cytotoxic compounds using the IEC-6 intestinal epithelial cell line. [Related pubchem assays: 1858 (Summary AID.), 1825 (Counterscreen.), 1907 (Confirmation screen.)]; format: functional
# [11] = target: Peroxisome proliferator-activated receptor gamma/Nuclear receptor coactivator 2 (Homo sapiens, UniProt P37231); assay: TR-FRET dose response biochemical High Throughput Screening assay for agonists of the steroid receptor coactivator 2 (SRC-2) recruitment by the peroxisome proliferator-activated receptor gamma (PPAR gamma): non-selective agonists. [Related pubchem assays: 1297, 1032 ]; format: functional
# [12] = target: Induced myeloid leukemia cell differentiation protein Mcl-1 (Homo sapiens, UniProt Q07820); format: functional
# [13] = target: Glucose-6-phosphate 1-dehydrogenase (Homo sapiens, UniProt P11413); assay: inhibition of Homo sapiens G6PD, dose series – biochemical, fluorescence, selectivity assay for P. falciparum G6PD inhibitor project, dose response (AID 504792); format: functional
# [14] = target: Eukaryotic translation initiation factor 4E (Mus musculus, UniProt P63073); assay: blockers of eIF4G binding by eIF4E – biochemical, TR-FRET, dose response (AID 855); format: functional;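 also: potency for disrupting eIF4E binding to eIF4GI seen as loss of FRET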
# Nonstructural protein 1 = Nonstructural protein 1 (Influenza A virus, UniProt Q194T2); format: functional, Influenza A virus (A/California/07/2009(H1N1))
# [15] = target: Heat shock protein HSP 90-alpha (Homo sapiens, UniProt P07900); format: functional, organism-based
# [16] = reduction of Shn3 3'UTR-driven luciferase in osteoblasts – cell-based, Clone20 osteoblasts, firefly luciferase, cherry-picked, dose response (AID 624132); format: functional;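 also: firefly luciferase luminescence from reporter carrying the Shn3 3'UTR in osteoblasts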
# [17] = loss of viability in HepG2 cells – cell-based, CellTiter-Glo, cherry-picked, cytotoxicity control for Shn3 inhibitor project, dose response (AID 624134); format: functional
# [18] = non-specific 3'UTR reporter inhibition in Clone20-Shn3RL – cell-based, Renilla luciferase, cherry-picked, counter-screen for Shn3 inhibitor project, dose response (AID 624133); format: functional
# [19] = HEK-293T viability loss after treatment – luminescence, T-cell screen hits, cytotoxicity control for TCR NF-kB inhibitor project, dose response (AID 489026); format: functional, cell-based;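 also: cells exposed to compound about 14 hours before the viability readout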
# [20] = viability loss in THP-1 monocytes – THP-1 cells, cytotoxicity control for Vif-APOBEC3G degradation inhibitor project, dose response (AID 1117359); format: functional; details: THP-1
# Mu-type opioid receptor = Mu-type opioid receptor (Homo sapiens, UniProt P35372); assay: SAR Analysis of Antagonists of the MOR Receptor using an Image-Based Assay - Set 3. [Related pubchem assays (depositor defined):AID1777, AID1785, AID1786, AID1966, AID2133, AID2136, AID2284, AID2285, AID2420]; format: functional
# [21] = target: Delta-type opioid receptor (Homo sapiens, UniProt P41143); assay: SAR Analysis of Antagonists of the DOR Receptor using an Image-Based Assay - Set 3. [Related pubchem assays (depositor defined):AID1777, AID1785]; format: functional;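 also: U2OS cells expressing DOR1 and beta-arrestin GFP stimulated with 100 nM SNC80; imaging of GFP-tagged beta-arrestin moving into spots after receptor activation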
# [22] = target: T4, Kappa-type opioid receptor (Homo sapiens, UniProt P41145); assay: SAR analysis of small molecule antagonists of the kappa opioid receptor via a luminescent beta-arrestin assay - Set 3. [Related pubchem assays (depositor defined):AID1777, AID1778, AID1785, AID1786, AID1966, AID2133, AID2136, AID2285, AID2495]; format: functional
# [23] = target: T4, Kappa-type opioid receptor; assay: SAR analysis of Antagonists of the Kappa Opioid Receptor (KOR) using an Image-Based Assay - Set 4. [Related pubchem assays (depositor defined):AID1777, AID1785]; format: functional
# T-cell = assay: loss of vesicle association with mouse CD8+ T cells – mouse 2C CD8+ T cells, flow cytometry, dose response (AID 485284); format: functional
# [24] = target: T5, G-protein coupled receptor 35 (Homo sapiens, UniProt Q9HC97); assay: SAR analysis of Agonists of the GPR35 Receptor using an Image-Based Assay - Set 4. [Related pubchem assays (depositor defined):AID2013, AID2026]; format: functional
# Cannabinoid receptor 1 [25] = target: T6, Cannabinoid receptor 1 (Homo sapiens, UniProt P21554); assay: SAR analysis of agonists of the Cannabinoid Receptor 1 using an Image-Based Assay - Set 4. [Related pubchem assays (depositor defined):AID2013, AID2026]; format: functional
# [26] = target: T5, G-protein coupled receptor 35; assay: SAR analysis of Antagonists of the GPR35 Receptor using an Image-Based Assay - Set 6. [Related pubchem assays (depositor defined):AID2013, AID2026]; format: functional
# Cannabinoid receptor 1 [27] = target: T6, Cannabinoid receptor 1; assay: SAR analysis of antagonists of the Cannabinoid Receptor 1 using an Image-Based Assay - Set 4. [Related pubchem assays (depositor defined):AID2013, AID2026]; format: functional
# [28] = target: T3, G-protein coupled receptor 55; assay: SAR Analysis of Selective Antagonists of GPR55 using an Image-Based Assay - Set 4. [Related pubchem assays (depositor defined):AID2013, AID2026]; format: functional
# Cannabinoid receptor 2 [29] = target: T7, Cannabinoid receptor 2 (Homo sapiens, UniProt P34972); assay: SAR analysis of antagonists of the Cannabinoid Receptor 2 using an Image-Based Assay - Set 3. [Related pubchem assays (depositor defined):AID2013, AID2026]; format: functional
# Cannabinoid receptor 2 [30] = target: T7, Cannabinoid receptor 2; assay: SAR analysis of agonists of the Cannabinoid Receptor 2 using an Image-Based Assay - Set 3. [Related pubchem assays (depositor defined):AID2013, AID2026]; format: functional
# Exodeoxyribonuclease V = Exodeoxyribonuclease V (Escherichia coli (strain K12), UniProt P04993+P07648+P08394); assay: RecBCD inhibition via phage-restricted bacterial growth – absorbance, V66 E. coli, mutant T4 phage, counter-screen for AddAB inhibitor project, dose response (AID 492957); format: functional, cell-based, Escherichia coli str. K-12 substr. MG1655
# [31] = Counterscreen for AddAB inhibitors: absorbance-based bacterial cell-based high throughput dose response assay for inhibitors of bacterial viability. [Related pubchem assays (depositor defined):AID435030, AID449728, AID449731, AID488942, AID488955, AID488956]; format: functional
# INS1 = assay: INS-1E survival protection against cytokine death – cell-based, luminescence, retest, dose response (AID 449756); format: functional; details: Rattus norvegicus, INS1;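 also: cell death triggered by IL-1 beta plus TNF-alpha plus IFN-gamma mixture; protective hits raise ATP signal compared with cytokine alone wells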
# T5 sequence (Q9HC97 whole entry): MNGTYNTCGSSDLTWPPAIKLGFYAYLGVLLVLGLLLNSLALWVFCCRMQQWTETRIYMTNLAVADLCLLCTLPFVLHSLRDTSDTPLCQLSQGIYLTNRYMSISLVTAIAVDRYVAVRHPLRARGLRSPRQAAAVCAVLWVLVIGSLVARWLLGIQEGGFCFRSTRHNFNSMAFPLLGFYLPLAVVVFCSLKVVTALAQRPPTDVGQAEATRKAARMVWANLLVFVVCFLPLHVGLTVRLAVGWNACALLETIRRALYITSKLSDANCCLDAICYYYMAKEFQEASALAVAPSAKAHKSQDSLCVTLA
# T7 sequence (P34972 whole entry): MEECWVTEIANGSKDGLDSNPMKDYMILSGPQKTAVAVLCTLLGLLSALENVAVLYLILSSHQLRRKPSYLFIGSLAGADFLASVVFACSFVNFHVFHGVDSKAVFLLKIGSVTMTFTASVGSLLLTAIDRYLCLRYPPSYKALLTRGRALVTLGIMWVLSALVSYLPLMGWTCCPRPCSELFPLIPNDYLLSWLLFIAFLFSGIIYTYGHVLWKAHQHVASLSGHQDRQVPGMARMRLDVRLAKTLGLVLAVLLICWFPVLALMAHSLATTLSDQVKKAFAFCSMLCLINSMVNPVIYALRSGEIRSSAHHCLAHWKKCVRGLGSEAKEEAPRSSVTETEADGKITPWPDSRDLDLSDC
# Nonstructural protein 1, sequence (Q194T2 whole entry): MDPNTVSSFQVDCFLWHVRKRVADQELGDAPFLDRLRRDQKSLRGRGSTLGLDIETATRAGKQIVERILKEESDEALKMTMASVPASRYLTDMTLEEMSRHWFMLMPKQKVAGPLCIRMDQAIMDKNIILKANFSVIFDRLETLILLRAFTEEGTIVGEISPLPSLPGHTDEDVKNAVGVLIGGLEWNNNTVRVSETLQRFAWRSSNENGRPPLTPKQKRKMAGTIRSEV
# T6 sequence (P21554 whole entry): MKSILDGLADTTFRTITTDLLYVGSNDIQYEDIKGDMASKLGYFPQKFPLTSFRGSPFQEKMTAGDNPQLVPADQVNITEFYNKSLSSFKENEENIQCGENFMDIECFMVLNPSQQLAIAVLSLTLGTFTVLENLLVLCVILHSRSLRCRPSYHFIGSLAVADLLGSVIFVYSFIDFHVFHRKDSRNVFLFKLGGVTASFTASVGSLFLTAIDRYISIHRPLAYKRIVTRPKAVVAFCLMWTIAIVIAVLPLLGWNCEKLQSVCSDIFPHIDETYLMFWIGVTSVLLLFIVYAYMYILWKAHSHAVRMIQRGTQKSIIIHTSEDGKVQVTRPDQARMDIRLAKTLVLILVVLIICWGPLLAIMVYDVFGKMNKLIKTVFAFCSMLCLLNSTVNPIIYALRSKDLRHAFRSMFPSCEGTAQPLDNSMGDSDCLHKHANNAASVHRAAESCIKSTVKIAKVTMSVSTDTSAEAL
# T4 sequence (P41145 whole entry): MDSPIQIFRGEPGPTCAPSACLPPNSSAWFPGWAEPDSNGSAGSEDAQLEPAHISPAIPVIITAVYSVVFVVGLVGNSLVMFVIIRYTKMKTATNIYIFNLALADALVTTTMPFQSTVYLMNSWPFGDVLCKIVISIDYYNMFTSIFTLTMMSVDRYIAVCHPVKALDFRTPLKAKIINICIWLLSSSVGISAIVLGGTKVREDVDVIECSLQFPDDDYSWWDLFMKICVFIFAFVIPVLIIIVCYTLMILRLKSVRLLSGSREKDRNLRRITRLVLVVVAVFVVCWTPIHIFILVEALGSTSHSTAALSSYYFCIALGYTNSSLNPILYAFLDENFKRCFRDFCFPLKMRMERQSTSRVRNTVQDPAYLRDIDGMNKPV
# T3 sequence (Q9Y2T6 whole entry): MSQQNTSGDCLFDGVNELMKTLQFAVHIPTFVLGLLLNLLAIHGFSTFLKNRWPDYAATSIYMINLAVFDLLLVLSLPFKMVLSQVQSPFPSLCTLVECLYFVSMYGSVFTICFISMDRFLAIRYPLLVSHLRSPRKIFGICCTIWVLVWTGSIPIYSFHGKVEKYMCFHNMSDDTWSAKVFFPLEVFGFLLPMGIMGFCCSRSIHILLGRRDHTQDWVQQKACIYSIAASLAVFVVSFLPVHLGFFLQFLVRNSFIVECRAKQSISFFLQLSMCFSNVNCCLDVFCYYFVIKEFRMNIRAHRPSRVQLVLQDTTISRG
# Glucose-6-phosphate 1-dehydrogenase, sequence (P11413 whole entry): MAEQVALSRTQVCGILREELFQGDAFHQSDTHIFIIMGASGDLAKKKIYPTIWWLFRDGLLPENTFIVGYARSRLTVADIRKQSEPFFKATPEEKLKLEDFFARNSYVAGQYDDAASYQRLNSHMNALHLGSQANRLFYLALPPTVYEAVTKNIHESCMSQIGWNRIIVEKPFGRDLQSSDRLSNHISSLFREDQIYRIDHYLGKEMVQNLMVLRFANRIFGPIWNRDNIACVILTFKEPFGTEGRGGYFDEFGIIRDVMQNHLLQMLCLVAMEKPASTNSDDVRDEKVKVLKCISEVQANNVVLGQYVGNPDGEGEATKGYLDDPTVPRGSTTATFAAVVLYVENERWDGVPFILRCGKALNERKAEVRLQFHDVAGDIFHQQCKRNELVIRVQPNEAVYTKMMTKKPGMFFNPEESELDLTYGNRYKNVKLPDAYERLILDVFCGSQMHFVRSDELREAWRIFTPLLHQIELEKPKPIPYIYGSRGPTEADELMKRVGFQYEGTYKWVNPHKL
# Eukaryotic translation initiation factor 4E, sequence (P63073 whole entry): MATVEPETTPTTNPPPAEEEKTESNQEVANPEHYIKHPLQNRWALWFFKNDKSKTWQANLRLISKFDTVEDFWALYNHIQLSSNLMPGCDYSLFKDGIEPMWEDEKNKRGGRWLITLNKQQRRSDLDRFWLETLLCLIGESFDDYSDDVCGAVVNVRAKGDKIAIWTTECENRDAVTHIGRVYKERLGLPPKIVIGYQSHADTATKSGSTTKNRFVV
# Mu-type opioid receptor, sequence (P35372 whole entry): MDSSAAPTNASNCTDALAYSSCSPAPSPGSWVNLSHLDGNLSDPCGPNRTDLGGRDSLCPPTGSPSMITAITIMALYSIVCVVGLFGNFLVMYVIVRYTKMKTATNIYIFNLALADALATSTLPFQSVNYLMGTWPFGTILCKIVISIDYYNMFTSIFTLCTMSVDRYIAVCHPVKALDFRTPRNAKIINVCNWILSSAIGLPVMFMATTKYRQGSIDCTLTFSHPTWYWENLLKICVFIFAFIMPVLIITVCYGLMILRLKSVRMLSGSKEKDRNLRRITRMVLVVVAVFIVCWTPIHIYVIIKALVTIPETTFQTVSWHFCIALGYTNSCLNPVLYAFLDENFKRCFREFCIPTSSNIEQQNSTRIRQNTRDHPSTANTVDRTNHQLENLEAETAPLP
# Peroxisome proliferator-activated receptor gamma, sequence (P37231 whole entry, the tested form may be a part): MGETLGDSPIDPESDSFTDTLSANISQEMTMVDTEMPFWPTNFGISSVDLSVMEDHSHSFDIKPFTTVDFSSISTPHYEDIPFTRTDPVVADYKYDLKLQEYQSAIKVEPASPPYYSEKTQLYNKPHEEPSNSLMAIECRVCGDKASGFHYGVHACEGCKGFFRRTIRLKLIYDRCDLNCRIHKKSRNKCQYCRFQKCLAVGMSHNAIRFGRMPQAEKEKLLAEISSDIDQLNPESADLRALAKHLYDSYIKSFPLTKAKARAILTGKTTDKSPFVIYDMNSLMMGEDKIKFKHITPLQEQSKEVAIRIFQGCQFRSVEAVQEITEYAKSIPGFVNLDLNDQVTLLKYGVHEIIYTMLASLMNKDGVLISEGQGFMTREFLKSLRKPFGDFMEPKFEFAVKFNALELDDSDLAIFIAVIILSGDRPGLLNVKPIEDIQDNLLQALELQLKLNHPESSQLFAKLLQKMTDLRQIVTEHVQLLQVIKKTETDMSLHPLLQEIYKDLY
# Intestinal-type alkaline phosphatase (Mus musculus, UniProt P24822), sequence (P24822 whole entry): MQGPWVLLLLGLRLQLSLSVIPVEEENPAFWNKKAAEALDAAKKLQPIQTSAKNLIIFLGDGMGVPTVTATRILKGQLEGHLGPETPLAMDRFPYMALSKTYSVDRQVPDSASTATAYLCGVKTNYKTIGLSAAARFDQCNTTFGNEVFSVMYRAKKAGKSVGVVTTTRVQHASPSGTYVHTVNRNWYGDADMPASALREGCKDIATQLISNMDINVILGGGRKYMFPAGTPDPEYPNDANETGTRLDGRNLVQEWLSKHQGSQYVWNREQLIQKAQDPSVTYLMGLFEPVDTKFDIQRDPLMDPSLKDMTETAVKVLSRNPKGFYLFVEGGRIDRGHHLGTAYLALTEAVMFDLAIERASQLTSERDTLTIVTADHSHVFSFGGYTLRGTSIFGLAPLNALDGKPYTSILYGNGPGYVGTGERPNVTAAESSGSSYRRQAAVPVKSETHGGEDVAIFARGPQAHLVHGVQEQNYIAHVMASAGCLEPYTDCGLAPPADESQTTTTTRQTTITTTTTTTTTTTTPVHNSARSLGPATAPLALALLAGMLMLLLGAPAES
# Intestinal-type alkaline phosphatase (Homo sapiens, UniProt P09923), sequence (P09923 whole entry): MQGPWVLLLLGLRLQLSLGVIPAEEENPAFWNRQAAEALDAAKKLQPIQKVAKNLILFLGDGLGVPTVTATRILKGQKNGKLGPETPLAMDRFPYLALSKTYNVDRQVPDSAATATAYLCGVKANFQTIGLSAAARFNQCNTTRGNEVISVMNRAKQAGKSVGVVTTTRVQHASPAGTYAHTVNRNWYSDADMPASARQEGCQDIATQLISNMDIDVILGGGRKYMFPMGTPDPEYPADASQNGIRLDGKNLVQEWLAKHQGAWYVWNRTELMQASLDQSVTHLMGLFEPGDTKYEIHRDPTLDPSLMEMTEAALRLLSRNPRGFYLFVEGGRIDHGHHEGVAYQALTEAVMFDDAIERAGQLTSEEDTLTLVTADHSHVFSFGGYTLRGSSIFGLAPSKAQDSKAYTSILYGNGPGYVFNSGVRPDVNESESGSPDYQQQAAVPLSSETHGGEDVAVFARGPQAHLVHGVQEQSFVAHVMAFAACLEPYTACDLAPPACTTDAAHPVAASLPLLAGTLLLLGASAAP
smiles,measurement,setting,value
Cc1ccc(NC(=O)CN(C)S(=O)(=O)c2ccc3[nH]c(=O)oc3c2)c(C)c1,EC50,[1],61.3 µM (active)
same,EC50,[2],57.9 µM (active)
same,EC50,[3],73.1 µM (active)
COc1ccccc1-n1cc(C(=O)c2cc(Cl)ccc2O)cc(C#N)c1=O,EC50,[4],2.4 µM (active)
same,IC50,[5],40.9 µM (inactive)
same,IC50,[6],25.5 µM (inactive)
CN(C)c1ccc(/C=C/c2ccc3c4ccccc4ccc3[n+]2-c2ccccc2)cc1,EC50,[7],19.2 µM (inactive)
same,EC50,[8],85.7 µM (not active)
same,IC50,[9],0.699 µM (active)
same,IC50,[10],2.41 µM (active)
same,EC50,[11],17 µM (not active)
same,IC50,[12],4.64 µM (not active)
same,IC50,[13],> 80 µM (inactive)
same,IC50,[14],50 µM (inactive)
same,IC50,Nonstructural protein 1,2.36 µM (active)
same,AC50,[15],3.19 µM (active)
same,AC50,[16],< 0.26 µM (active)
same,AC50,[17],2.21 µM (active)
same,AC50,[18],4.32 µM (active)
CC1CC(C)CN(S(=O)(=O)c2ccc(NC(=O)c3ccc(O)nc3)cc2)C1 (configuration not stated),IC50,[19],> 80 µM (inactive)
same,CC50,[20],19.7 µM (active)
O=C(NCCN(Cc1ccccc1)Cc1ccccc1)c1ccc(CNS(=O)(=O)c2ccccc2)cc1,IC50,Mu-type opioid receptor,> 32 µM (inactive)
same,IC50,[21],> 32 µM (inactive)
same,IC50,[22],> 20 µM (inactive)
same,IC50,[23],> 32 µM (inactive)
O=C(OCCOc1cccc(Cl)c1)c1ccc(F)c(S(=O)(=O)N2CCOCC2)c1,EC50,T-cell,12.4 µM (active)
COc1ccc(-c2c(-c3ccc(OCCN4CCOCC4)cc3O)n[nH]c2C)cc1,EC50,[24],> 32 µM (inactive)
same,EC50,Cannabinoid receptor 1 [25],> 32 µM (inactive)
same,IC50,[26],> 32 µM (inactive)
same,IC50,Cannabinoid receptor 1 [27],3.78 µM (active)
same,IC50,[28],> 32 µM (inactive)
same,IC50,Cannabinoid receptor 2 [29],26.8 µM (inactive)
same,EC50,Cannabinoid receptor 2 [30],> 32 µM (inactive)
Nc1c(Cl)ncnc1N/N=C/c1ccc2ccccc2n1,IC50,Exodeoxyribonuclease V,> 119 µM (inactive)
same,IC50,Nonstructural protein 1,8.42 µM (active)
same,IC50,[31],> 119 µM (inactive)
same,AC50,INS1,0.825 µM (active)
